Source: patent US4395969A (priority 1981, dated 1983)

Legend:
brown bullhead catfish = assay: Bioassay, brown bullhead catfish; format: in vivo, Ictalurus nebulosus; details: for mortality: 96 h, 140-185 mm; for mortality / time in which all bullhead catfish died: artesian well water, 10 C; for time in which all bullhead catfish died: fry 28-40 mm; for selectivity to bullhead catfish: in vivo
Procedure: Bioassays (10 fish per concentration) were made with brown bullhead catfish fry (28-40 mm) at concentrations of 0, 2, and 4 mg/l of 2, 2-dichlorovinyldiethyl phosphate in artesian well water (load, 0.5 g/l). All the Bullhead catfish died in 12 hours at 2 mg/l and in 6 hours at 4 mg/l of the chemical at 10 C.
A second series of bioassays (10 fish per concentration) was made with larger bullhead catfish (140-185 mm) at 0.6 and 1.0 mg/l concentrations of 2, 2-dichlorovinyl diethyl phosphate in artesian well water (load, 1.0 g/l) at 10 C. In 96 hours 50% mortality occurred at 0.6 mg/l and 100% mortality at 1.0 mg/l.

carp = assay: Bioassay, carp; format: in vivo, Cyprinus carpio; details: for selectivity to carp: in vivo
Procedure: In a later bioassay a concentration of 1 mg/l of 2, 2-dichlorovinyl diethyl phosphate killed a 20 g carp (68 mm) in 10 l of artesian well water (load, 2.0 g/l) at 10 C. in 30 hours.
A subsequent series of bioassays tested concentrations of 0.0, 0.6, 0.8, 1.0, 1.5 and 2.0 mg/l of 2, 2-dichlorovinyl diethyl phosphate with larger carp (fork length range, 115-150 mm; mean weight, 44 g) using 10 fish per concentration (load, 0.7 g/l) and artesian well water at 10 C. A concentration of 2.0 mg/l of the chemical killed 100 percent of the carp in 24 hours and a concentration of 1.5 mg/l killed 90 percent of them in […] and 100 percent in 72 hours. No fish died in the control or at a concentration of 0.6 mg/l in 192-hour bioassays. In contrast the LC0 of salmonids exposed to 2, 2-dichlorovinyl diethyl phosphate varies between 4 and 8 mg/l in 48-hour bioassays and 2 and 6 mg/l in 96-hour bioassays at 10 C. (Table 2).

[1] = Half-life in river water with or without river mud, measured by bioassay with stickleback; format: physicochemical; details: river water with layer of river mud; 15 C
Procedure: The rate of deactivation was measured by bioassay with stickleback and the data were analyzed by conventional methods.

chinook salmon = assay: Deactivation with potassium permanganate, mortality of chinook salmon; format: in vivo, O. tschawytscha
stickleback = assay: Control of stickleback in 24-hour applications, usable concentration; format: in vivo; details: for recommended safe and effective concentration: river water tests
From the text: For field applications the concentration of the dichloro- and tetrachloro-compounds would vary with water quality--mainly with regard to water temperature and hydrogen ion concentrations. Generally, treated areas would contain water low in dissolved solids and a pH of 7 to 7.5. The activity of the chemicals would then be essentially similar to that determined in our tests using river water. For the treatment of rivers and shorelines of lakes the concentrations of the dichloro- and tetrachloro-compounds that would be used would be those that would kill stickleback or suckers in 12 to 24 hours. The information above, relating to Examples 1 and 12, substantiates improvement in fish culture by the addition of dichloroethyl or dichlorovinyl diethyl phosphate to an aqueous habitat at a concentration in water ranging between 0.1 and 10 mg/l. […] The information above, relating to Example 2, substantiates improvement in fish culture by the addition of tetrachloroethyl diethyl phosphate to an aqueous habitat at a concentration in water ranging between 4 and 80 μg/l.

kokanee = assay: Static bioassay, lethal concentration to kokanee; format: in vivo, a land-locked subspecies of sockeye salmon; details: 15 C
Procedure: (§1) Bioassays utilized water from an artesian well at Moscow, Idaho and from the headwaters of the Palouse River, also in Idaho. The chemical characteristics of the artesian water were analyzed as follows: Total hardness 67-120 mg/l; total dissolved solids, 160-175 mg/l; and pH 7.1. The chemistry of the Palouse River water was analyzed as follows: total hardness 17 mg/l; methyl orange alkalinity 26 mg/l; total dissolved solids, 32 mg/l and pH, 7.0.
(§2) Fish were acclimated to test temperatures, usually at 5, 7.5, 10, 15 and 20 degrees Celsius (C), at least 60 hours before exposure to toxicants. For fish and crayfish four water baths regulated the temperature of assay aquaria. Each water bath contained a battery of 20 identical 19-liter clear glass containers or 11.4-liter plastic aquaria lined with disposable polyethylene bags and covered with Plexiglass lids to reduce evaporation. For larger fish and large numbers of fish the bioassays were made in two temperature controlled rooms that contained a series of 700-liter circular fiberglass vats and a series of 76- and 91-liter plastic containers.
(§3) Standard bioassay techniques were used in sorting fish and conducting the tests. Fish were placed in aerated test aquaria overnight to permit fish to recover from stress due to handling and to deprive them of food. The average load varied but most bioassays were conducted with about 1 g of fish per liter of water.
(§4) Aliquots of organophosphates were dissolved in ethanol and dispensed to the aquaria to provide concentrations suitable for obtaining the LC0 and LC50 of desirable fish and the LC50 and LC100 of target fish. Control fish were conditioned in the same manner as the test fish, but no chemical was added to the control vessels during the assays. After the addition of a chemical, observations were made mainly at 3, 6, 12, 24, 48, 96, and 192 h. The weight and fork length of fish were obtained when fishes were sacrificed.
(§5) Delineation bioassays determined primarily the LC50 and LC100 of sucker and stickleback and the LC0 and LC50 of salmonids.
(§6) The statistical LC1, LC50, and LC99 were interpolated and/or extrapolated using probit graph paper to approximate the LC0, LC50, and LC100 when the latter set of values was not closely determined by single concentrations in a series.
(§7) Threespine stickleback, brook stickleback, bridgelip sucker, white sucker, chinook salmon, coho salmon, sockeye salmon, kokanee, Kamloops trout, cutthroat trout, and brook trout were treated with various concentrations of 2, 2, 2, 1-tetrachloroethyl diethyl phosphate and at various temperatures to determine approximate selectivity and safety indices. The approximate LC50 and LC100 of the target fishes (threespine and brook sticklebacks and bridgelip and white suckers) are tabulated in Table 5. The 96-hour selectivity and safety indices of selected species of salmonids versus the threespine stickleback are tabulated in Table 7.

[2] = Static bioassay, lethal concentration to kokanee; format: in vivo, a land-locked subspecies of sockeye salmon; details: kokanee, water, 15 C
Procedure: as §1, §2, §3, §4, §5, §6, §7

crayfish = assay: Long-term static bioassay, crayfish; details: 2 μg/l; one also missing in control

SMILES: CCOP(=O)(OC=C(Cl)Cl)OCC [2,2-dichlorovinyl diethyl phosphate]
- mortality (brown bullhead catfish; 0.6 mg/l): 50%
- mortality (brown bullhead catfish; 1.0 mg/l): 100%
- time in which all bullhead catfish died (brown bullhead catfish; 2 mg/l): 12 h
- time in which all bullhead catfish died (brown bullhead catfish; 4 mg/l): 6 h
- selectivity to bullhead catfish (brown bullhead catfish): specific for the carp and bullhead catfish
- selectivity to bullhead catfish (brown bullhead catfish; listed as dichloro-compound): slightly more selective to bullhead than to stickleback
- carp mortality (carp; 0.6 mg/l, 192 h, artesian well water, 10 C): No fish died
- time in which carp was killed (carp; 1 mg/l, 20 g carp, artesian well water, 10 C): 30 h
- carp killed (carp; 1.5 mg/l, 72 h, artesian well water, 10 C): 100%
- carp killed (carp; 1.5 mg/l, 96 h, artesian well water, 10 C): 90%
- carp killed (carp; 2.0 mg/l, 24 h, artesian well water, 10 C): 100%
- selectivity to carp (carp): specific for the carp and bullhead catfish
- selectivity to carp (carp; listed as 2, 2-dichlorovinyl diethyl phosphate): the carp died first
- half-life [1]: 15 days
- deactivation by 1 equivalent weight of permanganate (chinook salmon; 15 C): about 25%
- effect of potassium permanganate on mortality (chinook salmon; excessive concentrations of 2 Cl): delayed mortality
- recommended safe and effective concentration (stickleback; 10 C): 5 mg/L
- recommended safe and effective concentration (stickleback; 15 C): 3 mg/L
- concentrations for control (upper: greater than) (stickleback; Kamloops, 10 C, 24 h or less, river water): 4-4 mg/l

SMILES: CCOP(=O)(OCC)OC(Cl)C(Cl)(Cl)Cl (centres unmarked) [2,2,2,1-tetrachloroethyl diethyl phosphate]
- LC0 (kokanee; 48 h): 30 µg/L
- LC0 (kokanee; 96 h): 20 µg/L
- LC0 (kokanee; 192 h): 20 µg/L
- LC50 at 48 h ([2]; 48 h): 0.04 µg/mL
- LC50 at 96 h ([2]; 96 h): 0.03 µg/mL
- LC50 at 192 h ([2]; 192 h): 0.027 µg/mL
- crayfish missing (crayfish): one
